Results from US20140155635A1, “RESORCYLIC ACID LACTONE COMPOUNDS” (KOREA INSTITUTE OF SCIENCE AND TECHNOLOGY, priority 2012, published 2014).

Columns and labels:
MEK 1/2 = settings: cited from earlier work
[1] = test system: serine/threonine kinase MAPK (mitogen-activated protein kinase); settings: cited from earlier work
VEGFR 2 = VEGFR 2 (Homo sapiens, UniProt P35968); settings: cited from earlier work
FLT 3/4 = settings: cited from earlier work
Molm-14 = test: Suppressive activity against growth of AML cells (MTT assay); assay type: cell-based; settings: Homo sapiens; Molm-14 cancer cell line
MV4-11 cell line = test: as above; assay type: cell-based; settings: Homo sapiens, MV4-11 cancer cell line, 48 hrs treatment
Protocol: The MV4-11 cell line was grown at 37° C. in RPMI medium [Gibco, New York, USA/10% FBS (Gibco), containing 1% penicillin/streptomycin (Gibco)] in a 5% CO2 atmosphere. The grown MV4-11 cell line was withdrawn into PBS, seeded at a density of 3×10^4 cells/well into 96-well plates, and cultured at 37° C. for 24 hrs in a 5% CO2 atmosphere. Various concentrations of the compound (8 points) were prepared by serial dilution in 10 mM DMSO, and the MV4-11 cell line was treated with various concentrations of the compound for 48 hrs. To assess cell viability, 3-(4,5-dimethylthiazol-2-yl)-2,5-diphenyl tetrazolium bromide (MTT) assay (CellTiter 96 Assay, Promega) was performed.
Briefly, the dye was added in an amount of 15 μL to each well and incubated for 2 hrs. Then, each well was incubated with 100 μL of a stop solution for 24 hrs, followed by reading absorbance at 590 nm on EnVision2103. GI50 was calculated using GraphPad Prism 4.0.

FLT1/VEGFR1 = FLT1/VEGFR1 (Homo sapiens, UniProt P17948); test: Assay for inhibitory activity against kinase; settings: read-out: % Inhibition (1 uM)
Sequence of FLT1/VEGFR1 (P17948 27-1338): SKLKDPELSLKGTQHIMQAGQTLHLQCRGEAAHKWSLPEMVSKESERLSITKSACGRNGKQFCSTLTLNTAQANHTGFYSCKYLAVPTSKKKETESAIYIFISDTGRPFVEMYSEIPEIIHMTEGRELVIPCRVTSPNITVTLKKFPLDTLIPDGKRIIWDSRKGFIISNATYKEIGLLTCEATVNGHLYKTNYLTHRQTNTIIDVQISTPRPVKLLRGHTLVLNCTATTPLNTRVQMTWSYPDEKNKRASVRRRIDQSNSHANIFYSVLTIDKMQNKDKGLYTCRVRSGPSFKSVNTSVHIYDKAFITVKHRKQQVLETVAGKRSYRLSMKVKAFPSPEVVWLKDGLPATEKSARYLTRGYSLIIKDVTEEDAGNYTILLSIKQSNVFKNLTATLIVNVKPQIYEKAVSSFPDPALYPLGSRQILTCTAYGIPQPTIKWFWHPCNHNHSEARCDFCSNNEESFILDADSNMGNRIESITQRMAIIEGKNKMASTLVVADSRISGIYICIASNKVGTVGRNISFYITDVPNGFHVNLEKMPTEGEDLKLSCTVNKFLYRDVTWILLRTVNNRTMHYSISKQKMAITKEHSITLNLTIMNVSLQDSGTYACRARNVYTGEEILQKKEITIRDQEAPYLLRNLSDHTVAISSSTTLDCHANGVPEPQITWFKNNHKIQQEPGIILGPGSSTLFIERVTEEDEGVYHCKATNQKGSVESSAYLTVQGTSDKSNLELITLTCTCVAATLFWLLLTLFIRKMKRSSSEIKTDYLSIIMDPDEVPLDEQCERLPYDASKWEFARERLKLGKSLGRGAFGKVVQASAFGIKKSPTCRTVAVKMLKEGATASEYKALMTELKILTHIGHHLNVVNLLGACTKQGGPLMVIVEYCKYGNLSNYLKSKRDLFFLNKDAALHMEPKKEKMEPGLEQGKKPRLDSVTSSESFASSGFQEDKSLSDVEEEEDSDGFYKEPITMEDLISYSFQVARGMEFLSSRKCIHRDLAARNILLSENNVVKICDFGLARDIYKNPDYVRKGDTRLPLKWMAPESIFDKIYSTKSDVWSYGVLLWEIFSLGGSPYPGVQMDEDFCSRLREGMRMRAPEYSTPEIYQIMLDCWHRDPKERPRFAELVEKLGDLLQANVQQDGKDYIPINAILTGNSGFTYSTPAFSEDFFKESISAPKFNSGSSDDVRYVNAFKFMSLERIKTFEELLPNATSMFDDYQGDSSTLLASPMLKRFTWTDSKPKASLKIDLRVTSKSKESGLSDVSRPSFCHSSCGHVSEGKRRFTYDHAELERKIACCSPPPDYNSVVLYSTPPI

PDGFRb = PDGFRb (Homo sapiens, UniProt P09619); test: Assay for inhibitory activity against kinase; settings: read-out: % Inhibition (1 uM)
Sequence of PDGFRb (P09619 33-1106): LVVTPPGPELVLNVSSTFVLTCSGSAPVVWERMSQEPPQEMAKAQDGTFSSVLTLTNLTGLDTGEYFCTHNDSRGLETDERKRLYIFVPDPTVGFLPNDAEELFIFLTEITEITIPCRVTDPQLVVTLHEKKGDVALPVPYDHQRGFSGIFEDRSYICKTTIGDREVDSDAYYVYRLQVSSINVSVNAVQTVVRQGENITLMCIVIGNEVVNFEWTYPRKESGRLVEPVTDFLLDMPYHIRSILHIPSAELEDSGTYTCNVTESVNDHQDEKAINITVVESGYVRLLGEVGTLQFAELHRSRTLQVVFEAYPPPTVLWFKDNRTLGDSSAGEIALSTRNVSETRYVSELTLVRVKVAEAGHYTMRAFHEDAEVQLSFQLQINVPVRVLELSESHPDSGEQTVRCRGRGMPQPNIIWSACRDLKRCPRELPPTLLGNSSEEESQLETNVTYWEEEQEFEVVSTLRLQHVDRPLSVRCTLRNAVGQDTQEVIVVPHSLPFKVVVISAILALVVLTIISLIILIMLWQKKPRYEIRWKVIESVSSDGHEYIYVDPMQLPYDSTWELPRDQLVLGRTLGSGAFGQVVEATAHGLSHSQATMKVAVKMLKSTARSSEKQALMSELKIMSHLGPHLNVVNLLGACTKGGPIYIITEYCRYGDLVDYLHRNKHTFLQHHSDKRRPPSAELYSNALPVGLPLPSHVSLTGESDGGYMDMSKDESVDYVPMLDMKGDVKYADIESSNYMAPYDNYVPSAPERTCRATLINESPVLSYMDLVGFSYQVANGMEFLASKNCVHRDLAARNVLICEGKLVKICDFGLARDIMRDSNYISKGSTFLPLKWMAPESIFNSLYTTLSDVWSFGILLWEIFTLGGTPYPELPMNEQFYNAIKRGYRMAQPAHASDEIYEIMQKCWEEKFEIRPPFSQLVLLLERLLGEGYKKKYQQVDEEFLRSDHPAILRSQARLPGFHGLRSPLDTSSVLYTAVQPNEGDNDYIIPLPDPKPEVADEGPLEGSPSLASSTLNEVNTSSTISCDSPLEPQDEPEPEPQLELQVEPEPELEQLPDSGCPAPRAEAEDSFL

Sequence of VEGFR 2 (P35968 20-1356, species assumed): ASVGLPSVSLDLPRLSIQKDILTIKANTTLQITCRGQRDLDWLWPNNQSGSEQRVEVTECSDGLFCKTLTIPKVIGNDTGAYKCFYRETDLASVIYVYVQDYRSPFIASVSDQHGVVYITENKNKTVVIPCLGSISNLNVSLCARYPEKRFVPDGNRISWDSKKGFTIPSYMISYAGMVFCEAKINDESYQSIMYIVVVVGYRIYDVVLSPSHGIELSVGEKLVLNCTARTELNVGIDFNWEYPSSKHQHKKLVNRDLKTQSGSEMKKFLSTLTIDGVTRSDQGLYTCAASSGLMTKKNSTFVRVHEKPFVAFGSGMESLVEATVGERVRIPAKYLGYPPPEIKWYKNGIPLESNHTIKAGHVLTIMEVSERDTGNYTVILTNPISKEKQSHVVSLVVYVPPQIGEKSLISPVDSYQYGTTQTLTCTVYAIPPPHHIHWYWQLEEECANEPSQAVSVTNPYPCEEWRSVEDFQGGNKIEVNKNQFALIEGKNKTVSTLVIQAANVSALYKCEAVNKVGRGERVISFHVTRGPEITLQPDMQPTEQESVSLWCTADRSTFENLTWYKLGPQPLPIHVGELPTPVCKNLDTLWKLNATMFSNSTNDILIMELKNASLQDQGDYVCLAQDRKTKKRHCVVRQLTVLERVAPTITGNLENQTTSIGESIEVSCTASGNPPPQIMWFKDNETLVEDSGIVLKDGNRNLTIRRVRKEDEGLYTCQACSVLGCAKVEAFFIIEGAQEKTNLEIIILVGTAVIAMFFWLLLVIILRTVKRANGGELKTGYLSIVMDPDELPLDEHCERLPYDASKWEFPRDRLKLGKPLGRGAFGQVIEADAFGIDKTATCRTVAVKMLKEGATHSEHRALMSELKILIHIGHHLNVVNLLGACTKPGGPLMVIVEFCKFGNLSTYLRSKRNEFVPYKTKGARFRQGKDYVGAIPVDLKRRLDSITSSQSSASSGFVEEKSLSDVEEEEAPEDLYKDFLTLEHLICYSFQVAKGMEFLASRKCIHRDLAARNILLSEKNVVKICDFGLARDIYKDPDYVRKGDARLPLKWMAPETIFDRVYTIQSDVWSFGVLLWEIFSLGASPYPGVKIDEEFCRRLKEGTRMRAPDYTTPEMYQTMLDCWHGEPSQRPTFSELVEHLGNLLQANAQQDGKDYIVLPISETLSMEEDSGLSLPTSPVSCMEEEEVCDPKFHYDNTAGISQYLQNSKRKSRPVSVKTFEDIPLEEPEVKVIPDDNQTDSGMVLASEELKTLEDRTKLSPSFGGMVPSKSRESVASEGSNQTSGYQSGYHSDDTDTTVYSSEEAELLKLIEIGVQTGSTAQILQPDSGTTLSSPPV

Compound | inhibitory activity against MEK 1/2 (MEK 1/2) | inhibition of MAPK (mode) [1] | inhibitory activity against VEGFR 2 (VEGFR 2) | inhibitory activity against FLT 3/4 (FLT 3/4) | GI50 (Molm-14) [µM] | GI50 (MV4-11 cell line) [µM] | inhibition at 1 µM (FLT1/VEGFR1) [%] | inhibition at 1 µM (PDGFRb) [%]
COc1cc(O)c2c(c1)CCC[C@H](O)[C@H](O)C(=O)/C=C\C[C@H](C)OC2=O [Compound L-783277] | potent inhibitory activity | irreversible ATP competitive inhibitor | potent inhibitory activity | potent inhibitory activity |  |  |  | 
COc1cc(O)c2c(c1)-c1cccc(c1)[C@@H](O)[C@H](O)C(=O)/C=C\C[C@H](C)OC2=O [Cpd. 24] |  |  |  |  | 0.09 | 0.03 | 64 | 70
